PMC3285636, “Identification by Virtual Screening and In Vitro Testing of Human DOPA Decarboxylase Inhibitors” (PLoS ONE, 2012)
Entries after “also recorded” stand apart in the source; their conditions may differ. Read-outs that look alike come from different tables or passages of the source. Marks after values point to notes of the source that are not given here.

Legend:
[1] = target: T1, human DDC (Homo sapiens, UniProt P20711); experiment: Assay of the inhibitory activity: spectrophotometric measurement of dopamine production by DDC; format: biochemical; conditions: for IC50: 0.1 mM L-Dopa, pH 7.4, 25°C, 9 concentrations in duplicate, read-out: IC50; for BE (binding efficiency): binding energy per unit of mass, from Ki and molecular weight in kDa; for Inhibition profile: type of inhibition from Lineweaver–Burk plots; for Ki′: mixed or noncompetitive inhibition
T1 construct: made in house
T1 sequence (P20711 1-480): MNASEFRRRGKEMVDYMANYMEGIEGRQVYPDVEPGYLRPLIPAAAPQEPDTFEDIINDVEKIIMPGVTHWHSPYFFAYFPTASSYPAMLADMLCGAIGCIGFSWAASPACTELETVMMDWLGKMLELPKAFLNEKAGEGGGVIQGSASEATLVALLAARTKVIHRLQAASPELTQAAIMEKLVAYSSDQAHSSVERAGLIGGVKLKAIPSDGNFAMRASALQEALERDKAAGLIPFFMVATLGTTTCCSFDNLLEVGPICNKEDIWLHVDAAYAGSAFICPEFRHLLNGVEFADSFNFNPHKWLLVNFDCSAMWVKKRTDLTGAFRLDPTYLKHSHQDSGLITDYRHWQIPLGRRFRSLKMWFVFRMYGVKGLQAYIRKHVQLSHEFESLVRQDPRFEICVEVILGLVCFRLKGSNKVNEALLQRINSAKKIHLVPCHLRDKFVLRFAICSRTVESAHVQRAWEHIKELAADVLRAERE
Method: DDC activity was determined by measuring the production of dopamine with a spectrophotometric assay outlined by Sherald et al. and modified by Charteris and John. The reaction was carried out in 0.1 M potassium phosphate buffer pH 7.4 at 25°C for 1 min and stopped by inactivation of the enzyme at 100°C for 90 sec. The inhibitory assay was performed by measuring the decarboxylase activity of DDC with 50 nM enzyme, 0.1 mM L-Dopa, and 10 µM PLP in the presence and in the absence of a fixed amount of each compound. Various amounts of dimethyl sulphoxyde (DMSO) were necessary to solubilize the compounds in 100 mM potassium phosphate buffer, pH 7.4. […] Compounds were evaluated at 9 concentrations, and each in duplicate. IC50 values were derived by nolinear regression analysis. The related inhibition type of the compounds on human DDC was identified from Lineweaver–Burk plots, and Ki and/or Ki′ values for the inhibitors tested were calculated by the software Origin 7.0.

[2] = target: T1, human DDC; experiment: Enzyme-ligand equilibrium dissociation constant from visible CD signal changes of DDC; format: binding; conditions: change of 420 nm or 335 nm CD band, 100 mM potassium phosphate pH 7.4
Method: The equilibrium dissociation constant for each tested compound from DDC was determined by monitoring the decrease in the 420 nm CD signal of DDC (7 µM) in the presence of various ligand concentrations in 100 mM potassium phosphate buffer, pH 7.4. In any case, the maximun DMSO concentration in the mixture was kept lower than 1% (v/v). The KD values were obtained from the fitting of the data to the equation [drawing 3] where [E]t and [L]t represent the total concentrations of DDC dimer and ligand, respectively, Y refers to the visible CD signal change at 420 nm at the ligand concentration [L], and Ymax refers to the CD signal when all enzyme molecules are complexed with the ligand. CD measurements were performed with a Jasco J-710 spectropolarimeter using quartz cuvettes with 1 cm path length.

[3] = 50 nM enzyme, L-Dopa, 10 µM PLP, 0.1 M potassium phosphate pH 7.4, 25°C, from Lineweaver–Burk plots, read-out: Ki
[4] = 0.1 M potassium phosphate pH 7.4, 25°C, from Lineweaver–Burk plots
[5] = Ki, competitive inhibition, Table 4, third screening
[6] = competitive inhibition, Table 4, third screening, read-out: Ki

Row | Structure (SMILES) | IC50 ([1]; 50 nM enzyme, 10 µM PLP) [µM] | Ki [1, 3] [µM] | BE (binding efficiency) [1] | Inhibition profile [1] | Kd [2] [µM] | Ki′ [1, 4] | Ki [1, 5] [µM] | Ki [1, 6] [µM] | Inhibition of DDC activity ([1]; at 200 µM (the concentration of its maximum solubility))
1 | Oc1ccc(C=Nn2c(S)nnc2-c2ccc(Cl)cc2)c(O)c1 [Compound 26] |  |  | 12.1 | noncompetitive inhibitors; also recorded: Nonconmpetitive |  | 65.2±−4.1^b µM |  |  | 
2 | Oc1ccc(C=Nn2c(S)nnc2-c2ccccc2)c(O)c1 [Compound 27] |  | 24.8 ± 1.2 |  | mixed mode |  | 43.1 ± 1.9 µM |  |  | 
3 | Oc1ccccc1/C=N/n1c(S)nnc1-c1ccccc1Cl [Compound 29] |  | 44.4 ± 2.3 |  | mixed mode |  | 208 ± 3 µM |  |  | 
4 | Oc1ccc(/C=N/n2c(S)nnc2-c2ccc(Cl)cc2Cl)cc1O [Compound 30] | 29.8 ± 4.8 | 12.2 ± 0.4 | 12.9 | competitive inhibitors | 25.1 ± 3.5 |  |  |  | 
5 | Oc1ccccc1/C=N/n1c(S)nnc1-c1ccccc1 [Compound 31] | 83 ± 12 | 33.4 ± 5 | 15.1 | competitive inhibitors | 31.7 ± 3.4 |  |  |  | 
6 | Oc1c(Br)cc(Br)cc1/C=N/n1c(S)nnc1-c1ccc(Cl)cc1Cl [Compound 32] |  | 4.5 ± 0.3 |  | mixed mode |  | 17 ± 0.2 µM |  |  | 
7 | Oc1ccccc1/C=N/n1c(S)nnc1-c1ccc(F)cc1 [Compound 33] |  | 16.5 ± 0.8 |  | mixed mode |  | 325 ± 39 µM |  |  | 
8 | Oc1ccc(/C=N/n2c(S)nnc2-c2ccc(Cl)cc2Cl)c(O)c1 [Compound 35] | 29 ± 2 |  |  | noncompetitive inhibitors |  | 127±16^b µM |  |  | 
9 | Oc1ccc(/C=N/n2cnnc2)cc1O [Compound 38] | 76 ± 5.8 |  | 22,6 |  | 24.5 ± 4.4 |  | 24.5 ± 1.4 |  | 
10 | Cc1ccccc1-c1nnc(S)n1/N=C/c1ccc(O)c(O)c1 [Compound 41] | 30.1 ± 2.1 |  | 15,4 |  | 6.1 ± 0.5 |  | 9.8 ± 0.5 |  | 
11 | COc1ccccc1-c1nnc(S)n1/N=C/c1ccc(O)c(O)c1 [Compound 47] | > 200 |  |  |  |  |  |  |  | does not inhibit DDC activity

Next, values leading:

Row | IC50 ([1]; 50 nM enzyme, 10 µM PLP) [µM] | Ki [1, 3] [µM] | BE (binding efficiency) [1] | Inhibition profile [1] | Kd [2] [µM] | Ki′ [1, 4] | Ki [1, 5] [µM] | Ki [1, 6] [µM] | Inhibition of DDC activity ([1]; at 200 µM (the concentration of its maximum solubility)) | Structure (SMILES)
12 | 15.2 ± 1.3 | 3.7 ± 0.2 | 15.7 | competitive inhibitors | 2.4 ± 0.1 |  |  |  |  | Oc1ccc(/C=N/n2c(S)nnc2-c2ccccc2Cl)cc1O [Compound 25]
13 | 17 ± 1 | 14 ± 1 | 14.7 | competitive inhibitors | 21.1 ± 3.5 |  |  |  |  | Oc1cccc(/C=N/n2c(S)nnc2-c2ccccc2Cl)c1 [Compound 28]
14 | 11 ± 0.8 | 10.4 ± 3.3 | 15.8 | competitive inhibitors | 7.1 ± 0.9 |  |  |  |  | Oc1ccc(/C=N/n2c(S)nnc2-c2ccc(F)cc2)cc1O [Compound 34]
15 | 2.4 ± 0.3 | 1.8 ± 1.1 | 18.4 | competitive inhibitors | 1.5 ± 0.2 |  |  |  |  | Oc1ccc(/C=N/n2c(S)nnc2-c2ccccc2)cc1O [Compound 37]
16 | 27.5 ± 3.3 |  | 19,9 |  | 9.1 ± 0.3 |  |  | 10.8 ± 0.8 |  | Cc1nnc(S)n1/N=C/c1ccc(O)c(O)c1 [Compound 39]
17 | 3.5 ± 0.2 |  | 19,4 |  |  |  | 1.4 ± 0.1 |  |  | Oc1ccc(/C=N/n2c(S)nnc2-c2ccco2)cc1O [Compound 40]
18 | 1.7 ± 0.2 |  | 18,4 |  |  |  | 0.5 ± 0.1 |  |  | COc1ccc(-c2nnc(S)n2/N=C/c2ccc(O)c(O)c2)cc1 [Compound 44]
19 | 3.5 ± 0.3 |  | 17,4 |  |  |  |  | 1.1 ± 0.1 |  | Oc1ccc(/C=N/n2c(S)nnc2COc2ccccc2)cc1O [Compound 46]
